Active and inactive are the calls of the source. The rule behind the calls is not given here.
Experiments:
[1] = tested on: BXPC-3; experiment: Inhibition of c-Myc protein expression in human BXPC-3 cells at 4 to 16 uM measured after 48 hrs by Western blot analysis; format: functional, cell-based; settings: dose 4-16 µM
[2] = tested on: BXPC-3; experiment: Inhibition of BRD4 protein expression in human BXPC-3 cells at 4 to 16 uM measured after 48 hrs by Western blot analysis; format: functional, cell-based; settings: dose 4-16 µM
[3] = molecular target: Bromodomain-containing protein 4 (Homo sapiens, UniProt O60885); experiment: Inhibition of BRD4 in human BXPC-3 cells assessed as blocking of BRD4-pTEFB interaction; format: cell-based
[4] = tested on: BXPC-3; experiment: Cell cycle arrest in human BXPC-3 cells assessed as accumulation at G0/G1 phase measured after 48 hrs by AnnexinV-FITC/propidium iodide staining based flow cytometry; format: functional; settings: dose 4-16 µM
[5] = tested on: BXPC-3; experiment: Induction of apoptosis in human BXPC-3 cells measured after 48 hrs by AnnexinV/propidium iodide staining based flow cytometry; format: functional, cell-based; settings: dose 4-16 µM
[6] = tested on: BXPC-3; experiment: Induction of apoptosis in human BXPC-3 cells assessed as activation of caspase 3 at 4 to 16 uM measured after 48 hrs by Western blot analysis; format: functional, cell-based; settings: dose 4-16 µM
[7] = tested on: BXPC-3; experiment: Induction of apoptosis in human BXPC-3 cells assessed as increase in cytochrome C expression at 4 to 16 uM measured after 48 hrs by Western blot analysis; format: functional, cell-based; settings: dose 4-16 µM
[8] = tested on: BXPC-3; experiment: Induction of apoptosis in human BXPC-3 cells assessed as increase in cleaved PARP expression at 4 to 16 uM measured after 48 hrs by Western blot analysis; format: functional, cell-based; settings: dose 4-16 µM
[9] = tested on: BXPC-3; experiment: Induction of apoptosis in human BXPC-3 cells assessed as late apoptotic cells at 8 uM measured after 48 hrs by AnnexinV/propidium iodide staining based flow cytometry (reference value: 5.15 %); format: functional
[10] = tested on: BXPC-3; experiment: Induction of apoptotic cell death in human BXPC-3 cells at 4 to 16 uM measured after 48 hrs by Live/Dead dye based inverted fluorescence microscopic analysis; format: functional; settings: dose 4-16 µM
[11] = tested on: Mus musculus; experiment: Decrease in c-Myc expression in BALB/c mouse allografted with mouse Panc02 cells […] at 50 mg/kg, ip administered every day in combination with gemcitabine at 100 mg/kg measured after 20 days by immunohistochemical analysis; format: functional, organism-based; settings: time 20.0 day
[12] = tested on: Mus musculus; experiment: Upregulation of caspase 3 in BALB/c mouse allografted with mouse Panc02 cells […] at 50 mg/kg, ip administered every day measured after 20 days by immunohistochemical analysis; format: functional, organism-based; settings: time 20.0 day
[13] = tested on: Mus musculus; experiment: Downregulation of Ki67 expression in BALB/c mouse allografted with mouse Panc02 cells […] at 50 mg/kg, ip administered every day measured after 20 days by immunohistochemical analysis; format: functional, organism-based; settings: time 20.0 day
[14] = tested on: BXPC-3; experiment: Cell cycle arrest in human BXPC-3 cells assessed as acumulation at G0/G1 phase by measuring downregulation of CyclinA2 at 4 to 16 uM measured after 48 hrs by Western blot analysis; format: functional, cell-based; settings: dose 4-16 µM

In the case of `CCS(=O)(=O)Nc1ccc(Oc2ccccc2F)c(-c2cn(C)c(=O)c3cncn23)c1`, the inhibition [1] is reported as “Active”, the inhibition [2] is reported as “Active” and the inhibition [3] is reported as “Active”. For the same compound, the Activity [4] was “Dose-dependent effect”, the Activity [5] was “Dose-dependent effect” and the Activity [6] was “Active”. The Activity [7] was “Active”, the Activity [8] was “Active” and the Activity [9] was 12.36%. The Activity [10] was “Active”, the Activity [11] was “Active” and the Activity [12] was “Active”. For the same compound, the Activity [13] was “Active” and the Activity [14] was “Active”.

Reference: ChEMBL document CHEMBL4673289, “Design, synthesis and biological evaluation of imidazolopyridone derivatives as novel BRD4 inhibitors” (Bioorg Med Chem, 2021)
